Assay results reported in US9434701B2, “Aminoquinoxaline derivatives for treatment of neurodegenerative diseases” (CENTRE NATIONAL DE LA RECHERCHE SCIENTIFIQUE (CNRS), priority 2011, dated 2016).
Read-outs that look alike come from different tables or passages of the source.

Experiments:
Type in all cases: cell-based
[1] = test system: fetal dopaminergic neurons (TH+) in culture; test: dopaminergic neuron spontaneous degeneration model, second protocol (Mourlevat et al.), TH+ neuron count after 10 days; conditions: Rattus norvegicus, 240 h, read-out: TH+ neurons in % of control ± Std. Err.
Experimental: This second protocol is described in the article by Mourlevat, P. P. Michel et al. Molecular Pharmacology 2003, 64:578-586 (“Prevention of Dopaminergic Neuronal Death by Cyclic AMP in Mixed Neuronal/Glial Mesencephalic Cultures Requires the Repression of Presumptive Astrocytes”). […] Compounds according to the invention were evaluated at 50 μM except compound 4bc which was assessed at 100 μM.

[2] = test system: dopaminergic neurons (TH+) of rat embryo ventral midbrain culture; test: neuritogenic activity: neurite outgrowth per cell / differentiation of TH+ neurons; conditions: Rattus norvegicus, Neuron; compound at 100 nM; read-out: Diff in % of control ± SEM
Experimental: Quinoxaline derivatives were tested on a dopaminergic neuron spontaneous degeneration model in culture according to the protocol described in the article by F. Schmidt et al. […] This model consists of culturing rat embryo ventral midbrain. This part of the brain in culture contains a proportion of dopaminergic neurons of 5% of the total neurons; the other neurons are mainly GABAergic. These cultures are also composed of glial cells, i.e., astrocytes, oligodendrocytes and microglia. These cultures are characterized by progressive neuron death. […] To assess the neuritogenic activity of compounds according to the invention, neurite outgrowth per cell was quantified using the Neurite Outgrowth software developed by Xplora Nova. At least 60 neurons per condition were photographed and studied.

[3] = test system: dopaminergic neurons (TH+) of rat embryo ventral midbrain culture; test: dopaminergic neuron spontaneous degeneration model in culture, TH+ neuron count after 8 days (Schmidt et al. protocol); conditions: Rattus norvegicus, Neuron, 192 h; compound at 100 nM; 8 days of culture; read-out: TH+ neurons in % of control ± SEM
Experimental: Quinoxaline derivatives were tested on a dopaminergic neuron spontaneous degeneration model in culture according to the protocol described in the article by F. Schmidt et al. […] This model consists of culturing rat embryo ventral midbrain. This part of the brain in culture contains a proportion of dopaminergic neurons of 5% of the total neurons; the other neurons are mainly GABAergic. These cultures are also composed of glial cells, i.e., astrocytes, oligodendrocytes and microglia. These cultures are characterized by progressive neuron death.

[4] = compound at 50 μM, 10 days of culture, one experiment in triplicate

With `COc1ccc(-c2nc3cc(N)ccc3nc2-c2ccccc2)cc1` [Compound 4ch] the activity at 50 µM [1, 4] was 130 ± 10%.
Work on `Nc1ccc2ncc(-c3ccccc3)nc2c1` [Compound 4ac] yielded an activity at 50 µM [1] of 189 ± 11%.
Compound `CCCCCCc1nc2ccc(N)cc2nc1CCCC` [Compound 4ed] has an activity at 0.1 µM [2] of 104% and an activity at 0.1 µM [3] of 115%.
Compound `Cc1nc2ccc(N)c(Cl)c2nc1-c1ccccc1` [Compound 8bc] has an activity at 50 µM [1, 4] of 129 ± 8%.
In the case of `CCCCc1nc2cc(N)ccc2nc1C` [Compound 4bd], the activity at 0.1 µM [2] is reported as 102% and the activity at 0.1 µM [3] is reported as 121%.
In the case of `C#CCNc1ccc2nc(C)c(-c3ccccc3)nc2c1` [Compound 9bc], the activity at 50 µM [1, 4] is reported as 174 ± 15%.
With `C#CCNc1ccc2nc(C)c(-c3ccc(F)cc3)nc2c1` [Compound 9bm] the activity at 50 µM [1, 4] was 166 ± 15%.
Work on `CCCCc1cnc2ccc(N)cc2n1` [Compound 4ad] yielded an activity at 0.1 µM [2] of 118% and an activity at 0.1 µM [3] of 101%.
Work on `Cc1nc2ccc(N)c(Br)c2nc1-c1ccccc1` [Compound 7bc] yielded an activity at 50 µM [1, 4] of 153 ± 12%.
